From paper PMC3141655 (BMC Biochemistry, 2011)

Tests used:
[1] = target: StOASS (O-acetylserine sulfhydrylase) (Salmonella typhimurium, UniProt P0A1E3); experiment: PLP fluorescence titration of ligands with StOASS; type: binding; parameters: His tag (N); made in house; host or cells: E. coli BL21(DE3), pET28a(+); conditions: similar experimental conditions as cysteine/methionine titrations
Experimental: Titrations of ligands with StOASS were examined by monitoring changes in the active site pyridoxal 5'phosphate (PLP) fluorescence of OASS using a Varian spectrofluorometer. The excitation and emission wavelengths for monitoring PLP signal change upon ligand binding were 412 nm and 507 nm respectively. All experiments were done at 23.0 ± 1°C. Slit widths were set to 5 nm for all experiments and PMT voltage was adjusted to get maximum signal for a given protein concentration. Initial readings of both the sample, Fsamp,0 and buffer, Fbuf,0 were taken, with F0 = Fsamp,0-Fbuf,0 defined as the initial fluorescence of the sample. The sample cuvette was then titrated with aliquots of ligands and mixed, equilibrated for 2-5 minutes before measurement. Data points from five such measurements were averaged to obtain Fave,i. The relative fluorescence quenching upon ligand binding is defined as Qobs,i = (F0-Fobs,i)/F0. All measurements were corrected for dilution, and inner filter effects.
Binding of ligands to OASS was analyzed to obtain the equilibrium binding constant, Kobs = [PL]/[P]*[L], using a single or two independent site binding models (eqn 1)(1) [drawing 1]
Where n, number of binding sites, Qobs, observed fluorescence quenching and Qmax, the maximum fluorescence quenching at saturation.

[2] = substrate: CC(=O)OC[C@H](N)C(=O)O; experiment: Steady state kinetic measurement of StOASS activity (ninhydrin-cysteine assay); type: biochemical, Salmonella typhimurium; conditions: other: 0.1M Hepes, pH 7.5, 30 °C, 2 mM Na2S, OAS 1-10 mM
Experimental: Steady state kinetic measurement of StOASS activity in the reaction buffer (as in Fig S2).
OASS activity was measured by monitoring the cysteine formation. Data were fitted to Michaelis-Menten equation using origin 5.0. The Km(OAS) was estimated to be 0.89 […]
Enzyme assay: Assay is based on the specific reaction of ninhydrin with cysteine under strong acidic conditions and monitoring of modified cysteine (ninhydrin-cysteine adduct) at 560 nm. The reaction was allowed to proceed for 20 minutes (30 °C, linear phase) with varied concentrations of OAS (1- 10 mM, 2 mM Na2S) in the reaction buffer (0.1M Hepes, pH 7.5, 150 µl reaction volume). The reaction was terminated with 5% TFA and centrifuged at 11000 rpm for 2 min. 125 µl glacial acetic acid + 125 µl acidic ninhydrin reagent were added to 125 µl of supernatant. Samples were boiled for 10 min at 100°C and cooled to room temperature. 600 µl of chilled absolute ethanol was added to the mix and the absorbance at 560 nm was used for determining the amount of cysteine present in the sample. Cysteine liberated was determined from a standard curve plotted by using known concentrations of cysteine.

## CC[C@H](C)[C@H](N)C(=O)O [isoleucine, L-isoleucine]
[1]
  binding to OASS when presented as amino acid: does not bind OASS

B1: StOASS (Salmonella enterica subsp. enterica serovar Typhimurium str. LT2) (protein)
chain: MSKIYEDNSLTIGHTPLVRLNRIGNGRILAKVESRNPSFSVKCRIGANMIWDAEKRGVLKPGVELVEPTSGNTGIALAYVAAARGYKLTLTMPETMSIERRKLLKALGANLVLTEGAKGMKGAIQKAEEIVASDPQKYLLLQQFSNPANPEIHEKTTGPEIWEDTDGQVDVFISGVGTGGTLTGVTRYIKGTKGKTDLITVAVEPTDSPVIAQALAGEEIKPGPHKIQGIGAGFIPGNLDLKLIDKVVGITNEEAISTARRLMEEEGILAGISSGAAVAAALKLQEDESFTNKNIVVILPSSGERYLSTALFADLFTEKELQQ
notes: His tag (N); made in house; host or cells: E. coli BL21(DE3), pET28a(+)
[2]
  Km: 890 µM
